Assays:
luciferase [1] = biological target: T1, luciferase (Photinus pyralis, UniProt P08659); experiment: Inhibition of the luciferase reaction (literature Ki values); type: biochemical; settings: if 10^-6 M ATP generated 10^-6 M AMP; estimated from Ki; 1 µM
Description: To the extent free AMP and free oxluciferin are formed in the reaction it could also be of interest to study whether this would affect the product inhibition. […] Consequently it may under certain conditions be important to counteract the effect of the generation of free oxyluciferin. The addition of D-luciferin analog makes the initial inhibition of the luciferase so big that the additional inhibition from the oxyluciferin, which is continuously formed during the reaction, will be negligible. The addition of inhibiting concentrations of a D-luciferin analog will thus stabilize the light level.

luciferase [2] = biological target: T1, luciferase; settings: inhibition of luciferase; literature value; cited from earlier work

T1 sequence (P08659 whole entry): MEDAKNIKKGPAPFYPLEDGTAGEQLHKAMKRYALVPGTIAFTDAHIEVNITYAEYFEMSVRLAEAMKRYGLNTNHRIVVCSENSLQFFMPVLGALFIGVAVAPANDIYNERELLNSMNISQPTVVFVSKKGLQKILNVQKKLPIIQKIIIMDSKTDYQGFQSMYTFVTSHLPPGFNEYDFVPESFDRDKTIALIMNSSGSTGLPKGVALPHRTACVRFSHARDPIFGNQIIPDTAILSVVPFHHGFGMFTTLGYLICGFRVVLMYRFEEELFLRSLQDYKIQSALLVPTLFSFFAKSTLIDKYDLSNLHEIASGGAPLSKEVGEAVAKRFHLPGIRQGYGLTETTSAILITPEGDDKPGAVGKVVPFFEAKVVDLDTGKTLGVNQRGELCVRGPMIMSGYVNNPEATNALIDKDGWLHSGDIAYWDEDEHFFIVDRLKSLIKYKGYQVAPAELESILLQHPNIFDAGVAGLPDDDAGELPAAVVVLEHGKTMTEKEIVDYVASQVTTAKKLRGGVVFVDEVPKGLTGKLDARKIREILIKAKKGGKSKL

Row | effect on the luciferase activity (luciferase [1]) | Compound | Ki (luciferase [2]) [µM]
1 | less than 0.5% | Nc1ncnc2c1ncn2[C@@H]1O[C@H](COP(=O)(O)O)[C@@H](O)[C@H]1O [AMP, adenosinel monophosphate] | 240
2 | – | O=C1CSC(c2nc3ccc(O)cc3s2)=N1 [oxyluciferin] | 0.23

From US4246340A, “Method and reagent for bioluminiscence” (LKB-Producter AB, priority 1979, dated 1981)
